Reference: patent US9801901B2, “Alginate oligomers for use in overcoming multidrug resistance in bacteria” (priority 2009, dated 2017)
≈ marks a conversion by molar mass, not a printed value. Marks after values point to notes of the source that are not given here.

Experiments:
[1] = tested on: PA01 Pseudomonas aeruginosa ATCC 15692; test: MIC assay, two-fold antibiotic dilutions in CAMHB with alginate oligomer, no visible growth; type: cell-based
[2] = tested on: Pseudomonas aeruginosa ATCC 39324, mucoid type strain (R79); test: MIC assay, CAMHB with alginate oligomer, no visible growth; type: cell-based
[3] = tested on: Pseudomonas aeruginosa CFA 24-1, clinical mucoid strain (R80); test: as above; type: cell-based
[4] = tested on: Pseudomonas aeruginosa MDR R22 from China (V1); test: as above; type: cell-based; settings: Pseudomonas aeruginosa, Table 1, V1 MDR R22 PA
Text: (§1) The study described in Example 1 was repeated with the following strains of bacteria and antibiotics as detailed in Tables 4, 5 and 6.

[5] = tested on: Pseudomonas aeruginosa MDR 301 from Poland (V2); test: as above; type: cell-based; settings: Pseudomonas aeruginosa, Table 1, V2 MDR 301 PA
[6] = tested on: Klebsiella pneumoniae KP05 506 from India (V3); test: as above; type: cell-based; settings: for MIC: Klebsiella pneumoniae, Table 1, V3 KP05 506
[7] = tested on: Acinetobacter baumannii MDR ACB from Libya (V4); test: as above; type: cell-based
Text: as §1
The study described in Example 1 was repeated with the following strains of Acinetobacter baumannii, antibiotics and M-block alginate oligomer in place of OligoG CF-5/20 as detailed in Table 7. The M-block oligomer is 100% M with a DPn of 15 to 18,

[8] = tested on: V9 (Egypt) Acinetobacter baumannii; test: as above; type: cell-based
[9] = tested on: V10 (Egypt) Acinetobacter lwoffii; test: as above; type: cell-based
[10] = tested on: V11 5702 (Wales) E. coli; test: as above; type: cell-based
[11] = tested on: V12 5725 (Wales) Klebsiella pneumoniae; test: as above; type: cell-based
[12] = tested on: V22 6056 Acinetobacter; test: as above; type: cell-based, Acinetobacter lwoffii
[13] = tested on: V23 1322 Burkholderia cepacia; test: as above; type: cell-based; settings: Table 6, V23
[14] = tested on: MDR Pseudomonas strains; test: MIC assay of Example 1, summary over the MDR Pseudomonas strains; type: cell-based, Pseudomonas aeruginosa
[15] = tested on: MDR strains of Pseudomonas aeruginosa, Klebsiella pneumoniae, Burkholderia cepacia, Acinetobacter lwoffii, Acinetobacter baumannii and E. coli; test: MIC assay of Example 2, summary over the strains of Tables 4, 5 and 6; type: cell-based; settings: Example 2, Tables 4, 5 and 6

Molecule `CC1(C)C[C@@H]1C(=O)N/C(=C\CCCCSC[C@H](N)C(=O)O)C(=O)O` [Primaxin, Imipenem/cilastatin] has an MIC ([1]; Pseudomonas aeruginosa, ATCC15692) of under 1 µg/mL, an MIC ([1]; Table 1, PA01, OligoCF-5/20 +2% G) of under 1 µg/mL and an MIC ([1]; Table 1, PA01, OligoCF-5/20 +6% G) of under 1 µg/mL. The MIC ([1]; Table 1, PA01, OligoCF-5/20 +10% G) was under 1 µg/mL, the MIC ([2]; Pseudomonas aeruginosa, ATCC39324) was under 1 µg/mL and the MIC ([2]; Table 1, R79, OligoCF-5/20 +2% G) was under 1 µg/mL. It also gave an MIC ([2]; Table 1, R79, OligoCF-5/20 +6% G) of under 1 µg/mL, an MIC ([2]; Table 1, R79, OligoCF-5/20 +10% G) of under 1 µg/mL and an MIC ([3]; Pseudomonas aeruginosa) of under 1 µg/mL. It also gave an MIC ([3]; Table 1, R80, OligoCF-5/20 +2% G) of under 1 µg/mL, an MIC ([3]; Table 1, R80, OligoCF-5/20 +6% G) of under 1 µg/mL and an MIC ([3]; Table 1, R80, OligoCF-5/20 +10% G) of under 1 µg/mL. The MIC ([4]; OligoCF-5/20 0G) was 128 µg/mL (≈ 357 µM), the MIC ([4]; OligoCF-5/20 +2% G) was 128 µg/mL (≈ 357 µM) and the MIC ([4]; OligoCF-5/20 +6% G) was 64 µg/mL (≈ 179 µM). For the same molecule, the MIC ([4]; OligoCF-5/20 +10% G) was 32 µg/mL (≈ 89.3 µM), the MIC ([5]; OligoCF-5/20 0G) was 512 µg/mL (≈ 1430 µM) and the MIC ([5]; OligoCF-5/20 +2% G) was 256 µg/mL (≈ 714 µM). The MIC ([5]; OligoCF-5/20 +6% G) was 256 µg/mL (≈ 714 µM), the MIC ([5]; OligoCF-5/20 +10% G) was 128 µg/mL (≈ 357 µM) and the “effectiveness in conjunction with alginate oligomers” value ([6]; Example 1, KP05 506) was “inconclusive”. It also gave an MIC ([6]; OligoCF-5/20 0G) of 32 µg/mL (≈ 89.3 µM), an MIC ([6]; OligoCF-5/20 +2% G) of 64 µg/mL (≈ 179 µM) and an MIC ([6]; OligoCF-5/20 +6% G) of 64 µg/mL (≈ 179 µM). It also gave an MIC ([6]; OligoCF-5/20 +10% G) of 64 µg/mL (≈ 179 µM), an MIC ([7]; Acinetobacter baumannii) of under 1 µg/mL and an MIC ([7]; Table 1, V4 ACB (Libya), OligoCF-5/20 +2% G) of under 1 µg/mL. For the same molecule, the MIC ([7]; Table 1, V4 ACB (Libya), OligoCF-5/20 +6% G) was under 1 µg/mL, the MIC ([7]; Table 1, V4 ACB (Libya), OligoCF-5/20 +10% G) was under 1 µg/mL and the MIC ([8]; Acinetobacter baumannii) was 1 µg/mL (≈ 2.79 µM). The MIC ([8]; Table 5, V9 MDR Acin. baum, OligoCF-5/20 +2% G) was 2 µg/mL (≈ 5.58 µM), the MIC ([8]; Table 5, V9 MDR Acin. baum, OligoCF-5/20 +6% G) was <0.5^† μg/ml and the MIC ([8]; Table 5, V9 MDR Acin. baum, OligoCF-5/20 +10% G) was <0.5^† μg/ml. It also gave an MIC ([9]; Acinetobacter lwoffii) of under 0.5 µg/mL, an MIC ([9]; Table 5, V10 MDR Acin. lwoff, OligoCF-5/20 +2% G) of under 0.5 µg/mL and an MIC ([9]; Table 5, V10 MDR Acin. lwoff, OligoCF-5/20 +6% G) of under 0.5 µg/mL. It also gave an MIC ([9]; Table 5, V10 MDR Acin. lwoff, OligoCF-5/20 +10% G) of under 0.5 µg/mL, an MIC ([10]; Escherichia coli) of under 0.5 µg/mL and an MIC ([10]; Table 5, V11 MDR E.coli, OligoCF-5/20 +2% G) of under 0.5 µg/mL. It also gave an MIC ([10]; Table 5, V11 MDR E.coli, OligoCF-5/20 +6% G) of under 0.5 µg/mL, an MIC ([10]; Table 5, V11 MDR E.coli, OligoCF-5/20 +10% G) of under 0.5 µg/mL and an MIC ([11]; Klebsiella pneumoniae) of under 0.5 µg/mL. It also gave an MIC ([11]; Table 5, V12 MDR Kleb pneu, OligoCF-5/20 +2% G) of under 0.5 µg/mL, an MIC ([11]; Table 5, V12 MDR Kleb pneu, OligoCF-5/20 +6% G) of under 0.5 µg/mL and an MIC ([11]; Table 5, V12 MDR Kleb pneu, OligoCF-5/20 +10% G) of under 0.5 µg/mL. For the same molecule, the MIC ([12]; Acinetobacter) was 8 µg/mL (≈ 22.3 µM), the MIC ([12]; Table 5, V22 MDR Acin. lwoff, OligoCF-5/20 +2% G) was 8 µg/mL (≈ 22.3 µM) and the MIC ([12]; Table 5, V22 MDR Acin. lwoff, OligoCF-5/20 +6% G) was 8 µg/mL (≈ 22.3 µM). The MIC ([12]; Table 5, V22 MDR Acin. lwoff, OligoCF-5/20 +10% G) was 4^† μg/ml, the MIC ([13]; Burkholderia cepacia, Experiment 1 (18-03-10), OligoCF-5/20 0G) was 128 µg/mL (≈ 357 µM) and the MIC ([13]; Burkholderia cepacia, Experiment 2 (18-03-10), OligoCF-5/20 0G) was 256 µg/mL (≈ 714 µM). For the same molecule, the MIC ([13]; Burkholderia cepacia, Experiment 3 (19-03-10), OligoCF-5/20 0G) was 256 µg/mL (≈ 714 µM), the MIC ([13]; Experiment 1 (18-03-10), OligoCF-5/20 +2% G) was 128 µg/mL (≈ 357 µM) and the MIC ([13]; Experiment 1 (18-03-10), OligoCF-5/20 +6% G) was 64^† μg/ml. The MIC ([13]; Experiment 1 (18-03-10), OligoCF-5/20 +10% G) was 32^† μg/ml, the MIC ([13]; Experiment 2 (18-03-10), OligoCF-5/20 +2% G) was 128^† μg/ml and the MIC ([13]; Experiment 2 (18-03-10), OligoCF-5/20 +6% G) was 128^† μg/ml. For the same molecule, the MIC ([13]; Experiment 2 (18-03-10), OligoCF-5/20 +10% G) was 64^† μg/ml, the MIC ([13]; Experiment 3 (19-03-10), OligoCF-5/20 +2% G) was 256 µg/mL (≈ 714 µM) and the MIC ([13]; Experiment 3 (19-03-10), OligoCF-5/20 +6% G) was 256 µg/mL (≈ 714 µM). For the same molecule, the MIC ([13]; Experiment 3 (19-03-10), OligoCF-5/20 +10% G) was 128^† μg/ml, the “effectiveness when used in combination with the alginate oligomers” value [14] was “more effective” and the “change of MIC with increasing amounts of OligoG CF-5/20” value [15] was “decreasing MICs”.
